Assay results taken from patent US10597388B2, “Pyridazinone herbicides” (FMC CORPORATION, priority 2014, dated 2020).

Tests used:
Assay in all cases: Test D controlled growth environment herbicide test, pre- and postemergence
Assay type in all cases: in vivo
[1] = test system: pigweed (Amaranthus retroflexus)
In short: (§1)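 Rating is visual, 0–100 scale (100 = complete control), made against untreated plants 14–21 d after treatment in controlled growth conditions. Postemergence sprays went onto 1- to 4-leaf plants in peat medium; preemergence sprays onto silt loam after sowing; formulation included a surfactant.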

[2] = test system: blackgrass (Alopecurus myosuroides)
In short: as §1

[3] = test system: oilseed rape (Brassica napus)
In short: as §1

[4] = test system: wheat, spring (spring wheat, Triticum aestivum)
In short: as §1

[5] = test system: ryegrass, Italian (Italian ryegrass, Lolium multiflorum)
In short: as §1

[6] = test system: radish, wild (wild radish, Raphanus raphanistrum)
In short: as §1

[7] = test system: wheat, winter (winter wheat, Triticum aestivum)
In short: as §1

[8] = test system: field violet (Viola arvensis)
In short: as §1

[9] = test system: windgrass (Apera spica-venti)
In short: as §1

[10] = test system: deadnettle (henbit deadnettle, Lamium amplexicaule)
In short: as §1

[11] = test system: field poppy (Papaver rhoeas)
In short: as §1

[12] = test system: Russian thistle (Salsola kali)
In short: as §1

[13] = test system: chickweed (common chickweed, Stellaria media)
In short: as §1

[14] = Postemergence, 31 g ai/ha, scale 0 to 100 (0 no effect, 100 complete control)
[15] = Postemergence, 125 g ai/ha, visual rating on scale 0 (no effect) to 100 (complete control), 14 to 21 d
[16] = Postemergence, 250 g ai/ha, scale 0 to 100 (0 no effect, 100 complete control)
[17] = Preemergence, 62 g ai/ha, scale 0 to 100 (0 no effect, 100 complete control)
[18] = Preemergence, 125 g ai/ha, scale 0 to 100 (0 no effect, 100 complete control)
[19] = Preemergence, 250 g ai/ha, scale 0 to 100 (0 no effect, 100 complete control)
[20] = postemergence, 62 g ai/ha, scale 0 to 100, 0 no effect, 100 complete control

CCC(=O)Oc1c(C)nn(C)c(=O)c1-c1c(C)sc2c(C)cc(C)cc12 [Compound 28]
Pigweed plant response rating [1, 14]: 75
Plant response rating, Pigweed [1, 15]: 100
Plant response rating, Pigweed [1, 16]: 90
Plant response rating (scale of 0 to 100), Pigweed ([1]; Preemergence, 31 g ai/ha): 90
Plant response rating, Pigweed [1, 17]: 100
Plant response rating, Pigweed [1, 18]: 100
Plant response rating, Pigweed [1, 19]: 100
Plant response rating, Pigweed [1, 20]: 90
Blackgrass plant response rating [2, 14]: 75
Plant response rating, Blackgrass [2, 15]: 85
Plant response rating, Blackgrass [2, 16]: 85
Plant response rating (scale of 0 to 100), Blackgrass ([2]; Preemergence, 31 g ai/ha): 85
Plant response rating, Blackgrass [2, 17]: 85
Plant response rating, Blackgrass [2, 18]: 85
Blackgrass plant response rating [2, 19]: 95
Plant response rating, Blackgrass [2, 20]: 80
Oilseed Rape plant response rating [3, 14]: 65
Plant response rating, Oilseed Rape [3, 15]: 65
Plant response rating, Oilseed Rape [3, 16]: 85
Plant response rating (scale of 0 to 100), Oilseed Rape ([3]; Preemergence, 31 g ai/ha): 0
Plant response rating, Oilseed Rape [3, 17]: 0
Plant response rating, Oilseed Rape [3, 18]: 10
Plant response rating, Oilseed Rape [3, 19]: 25
Plant response rating, Oilseed Rape [3, 20]: 65
Wheat, Spring plant response rating [4, 14]: 0
Plant response rating, Wheat, Spring [4, 15]: 10
Plant response rating, Wheat, Spring [4, 16]: 20
Plant response rating (scale of 0 to 100), Wheat, Spring ([4]; Preemergence, 31 g ai/ha): 0
Plant response rating, Wheat, Spring [4, 17]: 0
Plant response rating, Wheat, Spring [4, 18]: 5
Plant response rating, Wheat, Spring [4, 19]: 25
Plant response rating, Wheat, Spring [4, 20]: 5
Ryegrass, Italian plant response rating [5, 14]: 75
Plant response rating, Ryegrass, Italian [5, 15]: 80
Plant response rating, Ryegrass, Italian [5, 16]: 85
Plant response rating (scale of 0 to 100), Ryegrass, Italian ([5]; Preemergence, 31 g ai/ha): 90
Plant response rating, Ryegrass, Italian [5, 17]: 95
Plant response rating, Ryegrass, Italian [5, 18]: 100
Plant response rating, Ryegrass, Italian [5, 19]: 100
Plant response rating, Ryegrass, Italian [5, 20]: 80
Radish, Wild plant response rating [6, 14]: 85
Plant response rating, Radish, Wild [6, 15]: 85
Plant response rating, Radish, Wild [6, 16]: 95
Plant response rating (scale of 0 to 100), Radish, Wild ([6]; Preemergence, 31 g ai/ha): 0
Plant response rating, Radish, Wild [6, 17]: 0
Plant response rating, Radish, Wild [6, 18]: 35
Plant response rating, Radish, Wild [6, 19]: 30
Plant response rating, Radish, Wild [6, 20]: 100
Wheat, Winter plant response rating [7, 14]: 5
Plant response rating, Wheat, Winter [7, 15]: 5
Plant response rating, Wheat, Winter [7, 16]: 15
Plant response rating (scale of 0 to 100), Wheat, Winter ([7]; Preemergence, 31 g ai/ha): 0
Plant response rating, Wheat, Winter [7, 17]: 0
Plant response rating, Wheat, Winter [7, 18]: 0
Plant response rating, Wheat, Winter [7, 19]: 0
Plant response rating, Wheat, Winter [7, 20]: 5
Field Violet plant response rating [8, 14]: 80
Plant response rating, Field Violet [8, 15]: 85
Plant response rating, Field Violet [8, 16]: 90
Plant response rating (scale of 0 to 100), Field Violet ([8]; Preemergence, 31 g ai/ha): 75
Plant response rating, Field Violet [8, 17]: 85
Plant response rating, Field Violet [8, 18]: 100
Plant response rating, Field Violet [8, 19]: 100
Plant response rating, Field Violet [8, 20]: 75
Windgrass plant response rating [9, 14]: 70
Plant response rating, Windgrass [9, 15]: 85
Plant response rating, Windgrass [9, 16]: 85
Plant response rating (scale of 0 to 100), Windgrass ([9]; Preemergence, 31 g ai/ha): 70
Plant response rating, Windgrass [9, 17]: 75
Plant response rating, Windgrass [9, 18]: 90
Plant response rating, Windgrass [9, 19]: 100
Plant response rating, Windgrass [9, 20]: 80
Deadnettle plant response rating [10, 14]: 10
Plant response rating, Deadnettle [10, 15]: 35
Plant response rating, Deadnettle [10, 16]: 70
Plant response rating (scale of 0 to 100), Deadnettle ([10]; Preemergence, 31 g ai/ha): 0
Plant response rating, Deadnettle [10, 17]: 0
Plant response rating, Deadnettle [10, 18]: 5
Plant response rating, Deadnettle [10, 19]: 5
Plant response rating, Deadnettle [10, 20]: 35
Field Poppy plant response rating [11, 14]: 80
Plant response rating, Field Poppy [11, 15]: 100
Plant response rating, Field Poppy [11, 16]: 100
Plant response rating (scale of 0 to 100), Field Poppy ([11]; Preemergence, 31 g ai/ha): 100
Plant response rating, Field Poppy [11, 17]: 95
Plant response rating, Field Poppy [11, 18]: 95
Plant response rating, Field Poppy [11, 19]: 100
Plant response rating, Field Poppy [11, 20]: 90
Russian Thistle plant response rating [12, 14]: 70
Plant response rating, Russian Thistle [12, 15]: 80
Plant response rating, Russian Thistle [12, 16]: 85
Plant response rating (scale of 0 to 100), Russian Thistle ([12]; Preemergence, 31 g ai/ha): 0
Plant response rating, Russian Thistle [12, 17]: 0
Plant response rating, Russian Thistle [12, 18]: 15
Plant response rating, Russian Thistle [12, 19]: 35
Plant response rating, Russian Thistle [12, 20]: 75
Chickweed plant response rating [13, 14]: 100
Plant response rating, Chickweed [13, 15]: 100
Plant response rating, Chickweed [13, 16]: 100
Plant response rating (scale of 0 to 100), Chickweed ([13]; Preemergence, 31 g ai/ha): 100
Plant response rating, Chickweed [13, 17]: 100
Plant response rating, Chickweed [13, 18]: 100
Plant response rating, Chickweed [13, 19]: 100
Plant response rating, Chickweed [13, 20]: 100
